Where “and” joins values, the source holds several entries; their conditions need not be identical. Equal values may be shown once.

In general, Ki refers to the dissociation constant of the complex between target and ligand, obtained from inhibition or displacement. Read a low Ki as higher affinity.

For the test, the target named is Nicotinic acetylcholine receptor (Rattus leucopus, UniProt Q62594).
Sequence of Nicotinic acetylcholine receptor (Q62594 whole entry): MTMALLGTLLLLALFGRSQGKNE
Consider `C=C(C=O)C[C@H]1C[C@H](O)[C@]2(C)O[C@@H]3C[C@@H]4O[C@@H]5C[C@]6(C)O[C@]7(C)CC[C@@H]8O[C@@H]9C[C@]%10(C)O[C@@H]%11C(C)=CC(=O)O[C@H]%11C[C@H]%10O[C@H]9C[C@@H](C)[C@H]8O[C@H]7C[C@H]6O[C@@]5(C)C/C=C\[C@H]4O[C@H]3C[C@H]2O1`, for which the Ki is > 10000 nM and 1000 nM.

In turn, `CNC(=O)OCC[N+](C)(C)C` [CAS_14721-69-8] registered an inhibition constant (Ki) of 5.2 nM.

The compound `C[N+](C)(C)CCCCCC[N+](C)(C)C` [Hexamethoniumdibromide] returned a Ki above 10000 nM.

Regarding `CN1[C@@H](C[C@@H](O)c2ccccc2)CCC[C@H]1CC(=O)c1ccccc1` [Lobeline], affinity was put at a Ki of 15.5 nM. That is a double-digit nanomolar value.

`O=C1N(Cc2ccccc2)C2C[S+]3CCCC3C2N1Cc1ccccc1` (stereo unspecified) [NSC_441310] gave a Ki above 10000 nM.

As for `COc1cc2c3cc1Oc1cc(ccc1O)C[C@@H]1c4c(cc(OC)c(O)c4Oc4ccc(cc4)C[C@@H]3N(C)CC2)CC[N+]1(C)C` [Tubocurarine,d], the Ki is 1000 nM and 282 nM.

These data come from BindingDB's records for PubMed 8035312 (University of California, 1994).
